Legend:
[1] = tested on: Hairless SKH mice; assay: Skin atrophy protocol: dermis-epidermis thickness after topical corticosteroid with or without HA fragments; assay type: in vivo
Text: Hairless SKH mice received twice daily for 5 days a topical treatment on the back with a steroid (0.05% clobetasol propionate or 0.1% desonide) with or without HA fragments (with a molecular weight comprised between 20 and 500 kDa, and obtained by the method including the treatment steps with ultrasound and filtering as described above). These fragments will be designated in the following examples by HAF. Dermal and epidermal atrophy and the concentration of skin hyaluronate were respectively determined by measuring the dermis-epidermis thickness in optical microscopy and by ELISA.
The epidermal and cutaneous (distance between the granular layer and the sweating glands) thicknesses were measured by an ocular micrometer. Ten measurements were made per mouse. The prevention index is the ratio between the control treated with clobetasol propionate (PC) alone and the PC +HAF composition.
The epidermal thickness was measured with an ocular micrometer after treatment with different desonide concentrations. Ten measurements were made per mouse. The prevention index is the ratio, at a determined corticosteroid concentration, between the control treated by the corticosteroid alone and by the corticosteroid composition+HAF.
The epidermal thickness was measured with an ocular micrometer after treatment with different corticosteroids. Ten measurements were made per mouse. The prevention index is the ratio between the control treated by the corticosteroid alone and the corresponding composition comprising the HAFs.
The non-treated hyaluronic acid, the fragments obtained by action of hyaluronidase, as well as the HAFs were compared for their preventive effects. The epidermal thickness was measured with an ocular micrometer. Ten measurements were made per mouse. The prevention index is the ratio between the control treated with the corticosteroid alone and with each corticosteroid composition+HAF.

[2] = tested on: hairless SKH1 mice; conditions: JEADV 19: 124, 2005; cited from earlier work
[3] = tested on: myeloperoxidase; assay: Myeloperoxidase activity in supernatant of homogenates of TPA-treated ear biopsies; assay type: in vivo, mice; conditions: 0.005% TPA on ears, PC 0.05%, HAF 1%, 4 days
Experimental: (§1) Skin inflammation was induced by topical application of 0.005% TPA (12-o-tetradecanoylphorbol-13-acetate) in acetone, on the ears of C57B1/6 mice; the control animals received the same volume of acetone. Clobetasol propionate (0.05%) and the HAFs (1%) were dissolved in 100 μL of carrier, and were applied together with TPA for 4 days; the control animals received the same volume of carrier. The inflammation was determined by measuring the thickness of the ears with a clip and the dermis-epidermis thickness in optical microscopy and by assaying myeloperoxidase activity. The animals were sacrificed 24 hrs after the last application. 6 mm biopsies were sampled, frozen in liquid nitrogen and then stored at −70° C. until the day of the analysis. The remainder of the tissue was set with formol and analyzed by immunohistology.
The myeloperoxidase activity was determined in the supernatant of the homogenates of the ear biopsies. […] The enzymatic activity of myeloperoxidase was determined according to the method of Bradley et al., modified for using the photometric plate reader. […] The optical density was measured at 450 nm. […] The expression of CD44, CD44v3 and pro-HB-EGF was analyzed by immunohistochemistry and by Western blotting according to methods already described (PLoS Med 3 (12): e493, 2006). […]

[4] = tested on: C57B1/6 mice; assay: Inflammation induced by TPA in the ear of mice: epidermis and dermis thickness, dermal cellularity; assay type: in vivo; conditions: 0.005% TPA on ears, PC 0.05%, HAF 1%, 4 days
Experimental: as §1
The epidermal inflammation induced by the application of Phorbol TPA ester was measured, after application of TPA, and then after treatment with clobetasol propionate, and after treatment with the composition comprising clobetasol propionate and HAFs. Ten measurements were made per mouse. The anti-inflammation index is the ratio between the control treated with TPA, and with the composition TPA+PC or TPA+PC+HAF.
The dermal inflammation induced by applying Phorbol TPA ester was measured, after application of TPA, and then after treatment with clobetasol propionate and after treatment with the composition comprising clobetasol propionate and HAFs. Ten measurements were made per mouse, the results are grouped in the Table 6 below. The anti-inflammation index in the ratio between the control treated with TPA, and with the association TPA+PC or TPA+PC+HAF.
Dermal cellularity induced by applying Phorbol TPA ester was measured, after application of TPA, and then after treatment with clobetasol propionate, and after treatment with the composition comprising clobetasol propionate and HAFs. Ten measurements were made per mouse. The anti-inflammation index is the ratio between the control treated with TPA, and with the association TPA+PC or TPA+PC+HAF.

[5] = Table 3: corticosteroid 0.05%, with or without HAF

## C[C@H]1C[C@H]2[C@@H]3CCC4=CC(=O)C=C[C@]4(C)[C@@]3(F)[C@@H](O)C[C@]2(C)[C@@]1(O)C(=O)CO [Betamethasone]
[1]; [5]
  Epidermal thickness % of non-treated control: 53 % of non-treated control

## CCC(=O)O[C@]1(C(=O)CCl)[C@@H](C)C[C@H]2[C@@H]3CCC4=CC(=O)C=C[C@]4(C)[C@@]3(F)[C@@H](O)C[C@@]21C [PC, clobetasol propionate]
[1]; PC 0.05%, HAF 1% where present, distance between granular layer and sweating glands
  Cutaneous thickness % of non-treated control: 56 % of non-treated control
[1]; PC 0.05%, HAF 1% where present, topical on the back twice daily for 5 days
  Epidermal thickness % of non-treated control: 33 % of non-treated control
[1]; [5]
  Epidermal thickness % of non-treated control: 28 % of non-treated control
[1]; Table 4: 0.05% Clobetasol alone or with HA form
  Epidermal thickness % of non-treated control: 28 % of non-treated control

## CC1=C(/C=C/C(C)=C/C=C/C(C)=C/C=O)C(C)(C)CCC1 [retinaldehyde]
[2]
  Prevention of epidermal atrophy induced by clobetasol propionate: prevents epidermal atrophy induced by a corticosteroid, clobetasol propionate

## CCCCCCCCCCCCCC(=O)O[C@@H]1[C@@H](C)[C@@]2(O)[C@@H](C=C(CO)C[C@]3(O)C(=O)C(C)=C[C@@H]23)[C@@H]2C(C)(C)[C@]12OC(C)=O [TPA, 12-o-tetradecanoylphorbol-13-acetate]
[3]
  myeloperoxidase % of control: 3273 % of control
[4]
  Dermal cellularity % of control: 789 % of control
  Dermis inflammation % of non-treated control: 226 % of non-treated control
  Epidermis inflammation % of control: 438 % of control

## CC1(C)O[C@@H]2C[C@H]3[C@@H]4CCC5=CC(=O)C=C[C@]5(C)[C@H]4[C@@H](O)C[C@]3(C)[C@]2(C(=O)CO)O1 [Desonide, desonide]
[1]; Desonide 0.025%, HAF 0 or 1%
  Epidermal thickness % of non-treated control: 72 % of non-treated control
[1]; Desonide 0.05%, HAF 0 or 1%
  Epidermal thickness % of non-treated control: 62 % of non-treated control
[1]; Desonide 0.075%, HAF 0
  Epidermal thickness % of non-treated control: 55 % of non-treated control
[1]; Desonide 0.1%, HAF 0 or 1%
  Epidermal thickness % of non-treated control: 46 % of non-treated control
[1]; [5]
  Epidermal thickness % of non-treated control: 62 % of non-treated control
[1]; Table 4: Desonide 0.1% alone or with HA form
  Epidermal thickness % of non-treated control: 46 % of non-treated control
